Assay results reported in patent USH1209H, “No-carrier-added (18F)-N-methylspiroperidol” (The United States of America as represented by the United …, priority 1985, dated 1993).
Like-named read-outs stand apart in the source and are kept apart here.

What was measured:
[1] = Baboon plasma analyses (total plasma radioactivity clearance and unchanged radioligand); details: for remaining at 40 s / remaining at 4 min / remaining at 10 min / remaining at 0.5 h / remaining at 1 h / remaining at 2 h / remaining at 3 h / remaining at 4 h: plasma; for remaining at 40 s: 0.67 min after injection; for remaining at 4 min: 4.0 min after injection; for remaining at 0.5 h: 30 min after injection; for remaining at 1 h: 60 min after injection; for remaining at 2 h: 120 min after injection; for remaining at 3 h: 180 min after injection; for remaining at 4 h: 240 min after injection
Text: (§1) A young adult (12 kg) female baboon (Papio anubis) was anesthesized initially with ketamine and subsequently maintained under halothane/nitrous oxide anesthesia for two PETT studies. […] Pett scans were made continually for 4 hrs from the time of radioisotope injection.
Blood was sampled from the femoral artery at initial intervals of 5 secs. Aliquots of plasma were counted to determine the total plasma radioactivity of clearance curves.

[2] = Tissue distribution of radioactivity in mice; type: in vivo, mouse; details: for tissue uptake at 5 min / tissue uptake at 1 h / tissue uptake at 2 h: read-out: Tissue distribution, % Dose/g
Text: As noted in Example 3 for the rat, the mouse brain uptake of radioactivity was higher for radiolabeled N-methylspiroperidol (1.1% of the administered dose).

dopamine receptors = experiment: PETT baboon studies: striatum and cerebellum radioactivity after i.v. [^18 F]-N-methylspiroperidol, with (-)- or (+)-butaclamol pretreatment
Text: as §1

[3] = Metabolic stability and uptake in rat brain (striatum, cerebellum); type: in vivo, rat (male BNL R strain); details: for remaining at 1 h / remaining at 4 h: iv, n = 2; for remaining at 1 h: 1 h after injection; for remaining at 4 h: 4 h after injection
[4] = baboon, iv, % [^18 F]-N-Methylspiroperidol in Plasma, baboon plasma
[5] = baboon, iv, % of ^18 F in CH3 CN as [^18 F]-N-Methylspiroperidol, baboon plasma

## CN1CN(c2ccccc2)C2(CCN(CCCC(=O)c3ccc([18F])cc3)CC2)C1=O [[^18 F]-N-methylspiroperidol]
[1]; Example 2
  time course of distribution compared with [^18 F]spiroperidol: more rapid
[1]; baboon plasma
  appearance of peripheral radioactive metabolites compared with [^18 F]spiroperidol: more rapid
[1]; baboon, after injection
  time for blood radioactivity to drop below the brain concentration: ≤ 90 s
[1]; [4]
  remaining at 40 s: 81%
  remaining at 4 min: 66%
  remaining at 0.5 h: 18%
  remaining at 1 h: 18%
  remaining at 2 h: 11%
  remaining at 3 h: 11%
  remaining at 4 h: 9.4%
[1]; baboon, iv, % [^18 F]-N-Methylspiroperidol in Plasma, baboon plasma, 10 min after injection
  remaining at 10 min: 43%
[1]; [5]
  remaining at 40 s: 88%
  remaining at 4 min: 78%
  remaining at 0.5 h: 32%
  remaining at 1 h: 36%
  remaining at 2 h: 26%
  remaining at 3 h: 29%
  remaining at 4 h: 26%
[1]; baboon, iv, % of ^18 F in CH3 CN as [^18 F]-N-Methylspiroperidol, baboon plasma, 10 min after injection
  remaining at 10 min: 60%
[1]; baboon, plasma radioactivity due to unaltered radioligand, baboon plasma, 10 mins after injection
  remaining at 10 min: 43%
[1]; baboon, total plasma radioactivity
  blood clearance: very rapid
[2]; mouse
  tissue distribution of radioactivity compared with that reported for N-[^11 C] methylspiroperidol: very little difference
[2]; mouse blood, 5 min, mean of three mice, range 1.0-1.5
  tissue uptake at 5 min: 1.2 %ID/g
[2]; mouse blood, 60 min, mean of three mice, range 0.40-0.50
  tissue uptake at 1 h: 0.45 %ID/g
[2]; mouse blood, 120 min, mean of four mice, range 0.15-0.27
  tissue uptake at 2 h: 0.19 %ID/g
[2]; mouse brain
  mouse brain uptake of radioactivity: 1.1 % of the administered dose
[2]; mouse brain, 5 min, mean of three mice, range 1.0-1.1
  Tissue distribution, % Dose/Organ: 1.1 % Dose/Organ
[2]; mouse brain, 5 min, mean of three mice, range 2.2-2.4
  tissue uptake at 5 min: 2.3 %ID/g
[2]; mouse brain, 60 min, mean of three mice, range 0.60-0.74
  Tissue distribution, % Dose/Organ: 0.68 % Dose/Organ
[2]; mouse brain, 60 min, mean of three mice, range 1.3-1.8
  tissue uptake at 1 h: 1.5 %ID/g
[2]; mouse brain, 120 min, mean of four mice, range 0.43-0.68
  Tissue distribution, % Dose/Organ: 0.57 % Dose/Organ
[2]; mouse brain, 120 min, mean of four mice, range 1.1-1.6
  tissue uptake at 2 h: 1.3 %ID/g
[2]; mouse heart, 5 min, mean of three mice, range 0.35-0.42
  Tissue distribution, % Dose/Organ: 0.37 % Dose/Organ
[2]; mouse heart, 5 min, mean of three mice, range 3.2-3.4
  tissue uptake at 5 min: 3.3 %ID/g
[2]; mouse heart, 60 min, mean of three mice, range 0.064-0.076
  Tissue distribution, % Dose/Organ: 0.072 % Dose/Organ
[2]; mouse heart, 60 min, mean of three mice, range 0.59-0.65
  tissue uptake at 1 h: 0.61 %ID/g
[2]; mouse heart, 120 min, mean of four mice, range 0.020-0.030
  Tissue distribution, % Dose/Organ: 0.026 % Dose/Organ
[2]; mouse heart, 120 min, mean of four mice, range 0.18-0.35
  tissue uptake at 2 h: 0.24 %ID/g
[2]; mouse kidneys, 5 min, mean of three mice, range 4.2-4.8
  Tissue distribution, % Dose/Organ: 4.5 % Dose/Organ
[2]; mouse kidneys, 5 min, mean of three mice, range 11-13
  tissue uptake at 5 min: 12 %ID/g
[2]; mouse kidneys, 60 min, mean of three mice, range 1.1-1.3
  Tissue distribution, % Dose/Organ: 1.2 % Dose/Organ
[2]; mouse kidneys, 60 min, mean of three mice, range 3.0-4.0
  tissue uptake at 1 h: 3.4 %ID/g
[2]; mouse kidneys, 120 min, mean of four mice, range 0.40-0.57
  Tissue distribution, % Dose/Organ: 0.46 % Dose/Organ
[2]; mouse kidneys, 120 min, mean of four mice, range 1.2-1.8
  tissue uptake at 2 h: 1.5 %ID/g
[2]; mouse liver, 5 min, mean of three mice, range 5.2-5.7
  tissue uptake at 5 min: 5.4 %ID/g
[2]; mouse liver, 5 min, mean of three mice, range 8.2-8.3
  Tissue distribution, % Dose/Organ: 8.2 % Dose/Organ
[2]; mouse liver, 60 min, mean of three mice, range 2.4-3.4
  tissue uptake at 1 h: 2.9 %ID/g
[2]; mouse liver, 60 min, mean of three mice, range 3.8-4.1
  Tissue distribution, % Dose/Organ: 4.0 % Dose/Organ
[2]; mouse liver, 120 min, mean of four mice, range 1.2-1.9
  tissue uptake at 2 h: 1.4 %ID/g
[2]; mouse liver, 120 min, mean of four mice, range 1.5-1.8
  Tissue distribution, % Dose/Organ: 1.6 % Dose/Organ
[2]; mouse lungs, 5 min, mean of three mice, range 2.0-2.1
  Tissue distribution, % Dose/Organ: 2.0 % Dose/Organ
[2]; mouse lungs, 5 min, mean of three mice, range 11-14
  tissue uptake at 5 min: 13 %ID/g
[2]; mouse lungs, 60 min, mean of three mice, range 0.24-0.29
  Tissue distribution, % Dose/Organ: 0.27 % Dose/Organ
[2]; mouse lungs, 60 min, mean of three mice, range 1.6-2.3
  tissue uptake at 1 h: 1.9 %ID/g
[2]; mouse lungs, 120 min, mean of four mice, range 0.09-0.16
  Tissue distribution, % Dose/Organ: 0.12 % Dose/Organ
[2]; mouse lungs, 120 min, mean of four mice, range 0.70-1.50
  tissue uptake at 2 h: 0.95 %ID/g
[2]; mouse ovaries, 60 min, mean of three mice, range 0.028-0.057
  Tissue distribution, % Dose/Organ: 0.040 % Dose/Organ
[2]; mouse ovaries, 120 min, mean of four mice, range 0.009-0.022
  Tissue distribution, % Dose/Organ: 0.014 % Dose/Organ
[2]; mouse small intestine, 5 min, mean of three mice, range 3.2-6.8
  Tissue distribution, % Dose/Organ: 5.3 % Dose/Organ
[2]; mouse small intestine, 5 min, mean of three mice, range 4.0-4.8
  tissue uptake at 5 min: 4.3 %ID/g
[2]; mouse small intestine, 60 min, mean of three mice, range 1.6-3.6
  Tissue distribution, % Dose/Organ: 2.9 % Dose/Organ
[2]; mouse small intestine, 60 min, mean of three mice, range 1.7-3.4
  tissue uptake at 1 h: 2.5 %ID/g
[2]; mouse small intestine, 120 min, mean of four mice, range 0.7-1.9
  Tissue distribution, % Dose/Organ: 1.3 % Dose/Organ
[2]; mouse small intestine, 120 min, mean of four mice, range 0.8-1.7
  tissue uptake at 2 h: 1.3 %ID/g
[2]; mouse spleen, 5 min, mean of three mice, range 0.82-1.05
  Tissue distribution, % Dose/Organ: 0.95 % Dose/Organ
[2]; mouse spleen, 5 min, mean of three mice, range 4.7-6.5
  tissue uptake at 5 min: 5.8 %ID/g
[2]; mouse spleen, 60 min, mean of three mice, range 0.25-0.28
  Tissue distribution, % Dose/Organ: 0.26 % Dose/Organ
[2]; mouse spleen, 60 min, mean of three mice, range 1.1-1.9
  tissue uptake at 1 h: 1.6 %ID/g
[2]; mouse spleen, 120 min, mean of four mice, range 0.043-0.073
  Tissue distribution, % Dose/Organ: 0.062 % Dose/Organ
[2]; mouse spleen, 120 min, mean of four mice, range 0.40-0.73
  tissue uptake at 2 h: 0.57 %ID/g
Dopamine receptors; 4 hrs after injection
  specifically bound component of radioactivity in the striatum (striatum minus cerebellum): still increasing at 4 hrs after injection
Dopamine receptors; after 0.5 mg/kg (+)-butaclamol pretreatment
  striatum and cerebellum radioactivity curves, access to specific binding sites: no longer had access to specific binding sites
Dopamine receptors; after the first few minutes, control study
  radioactivity in the cerebellum: declined rapidly in the cerebellum
Dopamine receptors; control study, (-)-butaclamol 0.5 mg/kg pretreatment
  absolute striatal uptake, excess over [^18 F]spiroperidol: more than two-fold
Dopamine receptors; first few minutes, control study
  Influx into striatum and cerebellum: equal for the first few minutes
Dopamine receptors; up to 4 hrs, control study
  radioactivity in the striatum: increasing for up to 4 hrs in the striatum
[3]; rat cerebellum, ind. values 90, 90
  remaining at 1 h: 90%
[3]; rat cerebellum, ind. values 85, 85
  remaining at 4 h: 85%
[3]; rat striatum, ind. values 95, 96
  remaining at 1 h: 96%
[3]; rat striatum, ind. values 98, 97
  remaining at 4 h: 98%
[3]; rat brain
  metabolism in the rat brain: very little metabolism
